According to ChEMBL document CHEMBL1201861, “Genomics of Drug Sensitity in Cancer screening data, Wellcome Trust Sanger Institute”:

Experiments:
Test in all cases: cells
Assay type in all cases: functional, cell-based, Homo sapiens
COLO-792 = conditions: Homo sapiens, COLO-792
Description: SANGER: Inhibition of human COLO-792 cell growth in a cell viability assay.

COR-L23 = conditions: Homo sapiens, COR-L23;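 also: cell viability assay measuring how strongly compounds suppress growth of COR-L23 cells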
Description: SANGER: Inhibition of human COR-L23 cell growth in a cell viability assay.

EFO-21 = conditions: Homo sapiens, EFO-21;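 also: growth inhibition of EFO-21 cells measured with a viability assay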
Description: SANGER: Inhibition of human EFO-21 cell growth in a cell viability assay.

EHEB = conditions: Homo sapiens, EHEB;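 also: growth inhibition of human EHEB cells, read out with a cell viability assay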
Description: SANGER: Inhibition of human EHEB cell growth in a cell viability assay.

HCC1937 = conditions: Homo sapiens, HCC1937;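 also: growth inhibition measured with a cell viability read-out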
Description: SANGER: Inhibition of human HCC1937 cell growth in a cell viability assay.

HCT-116 = conditions: Homo sapiens, HCT-116
Description: SANGER: Inhibition of human HCT-116 cell growth in a cell viability assay.

HEC-1 = conditions: Homo sapiens, HEC-1;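 also: growth inhibition of the cell line, read out with a cell viability assay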
Description: SANGER: Inhibition of human HEC-1 cell growth in a cell viability assay.

Hs-578T = conditions: Homo sapiens, Hs-578T
Description: SANGER: Inhibition of human Hs-578-T cell growth in a cell viability assay.

HuO-3N1 = conditions: Homo sapiens, HuO-3N1;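 also: cell viability readout used to measure how strongly compounds suppress proliferation of human HuO-3N1 cells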
Description: SANGER: Inhibition of human HuO-3N1 cell growth in a cell viability assay.

KYSE-180 = conditions: Homo sapiens, KYSE-180;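 also: growth inhibition of KYSE-180 cells, read out with a cell viability assay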
Description: SANGER: Inhibition of human KYSE-180 cell growth in a cell viability assay.

LN-405 = conditions: Homo sapiens, LN-405
Description: SANGER: Inhibition of human LN-405 cell growth in a cell viability assay.

MC-CAR = conditions: Homo sapiens, MC-CAR;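 also: growth inhibition of the human MC-CAR cell line, read out by a cell viability assay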
Description: SANGER: Inhibition of human MC-CAR cell growth in a cell viability assay.

MCF7 = conditions: Homo sapiens, MCF7;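 also: growth inhibition of human MCF7 cells, read out with a cell viability assay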
Description: SANGER: Inhibition of human MCF7 cell growth in a cell viability assay.

MDA-MB-134-VI = conditions: Homo sapiens, MDA-MB-134-VI
Description: SANGER: Inhibition of human MDA-MB-134-VI cell growth in a cell viability assay.

MIA PaCa-2 = conditions: Homo sapiens, MIA PaCa-2;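 also: growth inhibition of MIA PaCa-2 cells, read out with a cell viability assay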
Description: SANGER: Inhibition of human MIA-PaCa-2 cell growth in a cell viability assay.

MKN-28 = conditions: Homo sapiens, MKN-28;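 also: cell viability assay read-out, IC50 reflects suppression of growth of human MKN-28 cells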
Description: SANGER: Inhibition of human MKN28 cell growth in a cell viability assay.

NB1 = conditions: Homo sapiens, NB1;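 also: reduction of NB1 cell proliferation, read out with a viability assay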
Description: SANGER: Inhibition of human NB1 cell growth in a cell viability assay.

NCI-H187 = conditions: Homo sapiens, NCI-H187;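 also: growth inhibition of NCI-H187 cells, read out as cell viability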
Description: SANGER: Inhibition of human NCI-H187 cell growth in a cell viability assay.

NCI-H2347 = conditions: Homo sapiens, NCI-H2347;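 also: growth inhibition of the cell line, read out with a cell viability assay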
Description: SANGER: Inhibition of human NCI-H2347 cell growth in a cell viability assay.

NCI-H292 = conditions: Homo sapiens, NCI-H292;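 also: growth inhibition of NCI-H292 cells, read out with a cell viability assay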
Description: SANGER: Inhibition of human NCI-H292 cell growth in a cell viability assay.

NCI-H520 = conditions: Homo sapiens, NCI-H520;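 also: growth inhibition of NCI-H520 cells, measured by a cell viability assay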
Description: SANGER: Inhibition of human NCI-H520 cell growth in a cell viability assay.

NCI-H522 = conditions: Homo sapiens, NCI-H522;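 also: cell viability assay measuring growth inhibition of human NCI-H522 cells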
Description: SANGER: Inhibition of human NCI-H522 cell growth in a cell viability assay.

NCI-H661 = conditions: Homo sapiens, NCI-H661;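 also: cell viability assay read-out, IC50 being the concentration that inhibits growth of the cells by half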
Description: SANGER: Inhibition of human NCI-H661 cell growth in a cell viability assay.

NUGC-3 = conditions: Homo sapiens, NUGC-3;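 also: growth inhibition of human NUGC-3 cells, read out with a cell viability assay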
Description: SANGER: Inhibition of human NUGC-3 cell growth in a cell viability assay.

PFSK-1 = conditions: Homo sapiens, PFSK-1;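 also: cell viability assay measuring how strongly compounds suppress growth of human PFSK-1 cells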
Description: SANGER: Inhibition of human PFSK-1 cell growth in a cell viability assay.

RCM-1 = conditions: Homo sapiens, RCM-1;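 also: growth inhibition of the RCM-1 line, determined with a cell viability readout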
Description: SANGER: Inhibition of human RCM-1 cell growth in a cell viability assay.

RERF-LC-MS = conditions: Homo sapiens, RERF-LC-MS;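 also: growth inhibition of human RERF-LC-MS cells, read out by a cell viability assay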
Description: SANGER: Inhibition of human RERF-LC-MS cell growth in a cell viability assay.

RL = conditions: Homo sapiens, RL
Description: SANGER: Inhibition of human RL cell growth in a cell viability assay.

RPMI-7951 = conditions: Homo sapiens, RPMI-7951
Description: SANGER: Inhibition of human RPMI-7951 cell growth in a cell viability assay.

SCC-9 = conditions: Homo sapiens, SCC-9;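 also: Read-out is a cell viability assay, with values giving inhibition of cell growth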
Description: SANGER: Inhibition of human SCC-9 cell growth in a cell viability assay.

SIG-M5 = conditions: Homo sapiens, SIG-M5;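 also: cell viability assay read-out, measuring how strongly growth of cultured human SIG-M5 cells is inhibited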
Description: SANGER: Inhibition of human SIG-M5 cell growth in a cell viability assay.

SNU-423 = conditions: Homo sapiens, SNU-423
Description: SANGER: Inhibition of human SNU-423 cell growth in a cell viability assay.

SNU-449 = conditions: Homo sapiens, SNU-449
Description: SANGER: Inhibition of human SNU-449 cell growth in a cell viability assay.

SW1417 = conditions: Homo sapiens, SW1417;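 also: growth inhibition of human SW1417 cells, read out with a cell viability assay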
Description: SANGER: Inhibition of human SW1417 cell growth in a cell viability assay.

SW1573 = conditions: Homo sapiens, SW1573;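 also: growth inhibition of SW1573 cells, read out with a cell viability assay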
Description: SANGER: Inhibition of human SW1573 cell growth in a cell viability assay.

SW1783 = conditions: Homo sapiens, SW1783;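 also: cell growth inhibition measured with a viability assay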
Description: SANGER: Inhibition of human SW1783 cell growth in a cell viability assay.

SW-620 = conditions: Homo sapiens, SW-620;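 also: growth inhibition of human SW-620 cells, measured by a cell viability assay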
Description: SANGER: Inhibition of human SW620 cell growth in a cell viability assay.

SW756 = conditions: Homo sapiens, SW756;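 also: growth inhibition of human SW756 cells, read out with a cell viability assay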
Description: SANGER: Inhibition of human SW756 cell growth in a cell viability assay.

SiHa = conditions: Homo sapiens, SiHa;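 also: Viability-based readout of growth inhibition in SiHa cells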
Description: SANGER: Inhibition of human SiHa cell growth in a cell viability assay.

8505C = conditions: Homo sapiens, 8505C
Description: SANGER: Inhibition of human 8505C cell growth in a cell viability assay.

A 172 = conditions: Homo sapiens, A 172;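 also: growth inhibition of A172 cells, measured with a cell viability readout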
Description: SANGER: Inhibition of human A172 cell growth in a cell viability assay.

AN3-CA = conditions: Homo sapiens, AN3-CA;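 also: growth inhibition of human AN3-CA cells measured by a cell viability assay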
Description: SANGER: Inhibition of human AN3-CA cell growth in a cell viability assay.

C-33-A = conditions: Homo sapiens, C-33-A;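 also: cell viability assay measuring growth inhibition of C-33-A cells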
Description: SANGER: Inhibition of human C-33-A cell growth in a cell viability assay.

U-698-M = conditions: Homo sapiens, U-698-M
Description: SANGER: Inhibition of human U-698-M cell growth in a cell viability assay.

UO-31 = conditions: Homo sapiens, UO-31;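 also: cell viability assay measuring inhibition of cell growth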
Description: SANGER: Inhibition of human U031 cell growth in a cell viability assay.

CAMA-1 = conditions: Homo sapiens, CAMA-1;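 also: growth inhibition of CAMA-1 cells, read out with a cell viability assay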
Description: SANGER: Inhibition of human CAMA-1 cell growth in a cell viability assay.

CAPAN-1 = conditions: Homo sapiens, CAPAN-1;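 also: growth suppression of CAPAN-1 cells, read out by a cell viability assay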
Description: SANGER: Inhibition of human CAPAN-1 cell growth in a cell viability assay.

CHL-1 = conditions: Homo sapiens, CHL-1;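 also: cell growth inhibition, read out with a cell viability assay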
Description: SANGER: Inhibition of human CHL-1 cell growth in a cell viability assay.

Oc1ccc2ccccc2c1SSc1c(O)ccc2ccccc12
IC50 (COLO-792): > 32000 nM | IC50 (COR-L23): 11800 nM | IC50 (EFO-21): > 32000 nM | IC50 (EHEB): 8560 nM | IC50 (HCC1937): > 32000 nM | IC50 (HCT-116): > 32000 nM | IC50 (HEC-1): > 32000 nM | IC50 (Hs-578T): > 32000 nM | IC50 (HuO-3N1): > 32000 nM | IC50 (KYSE-180): > 32000 nM | IC50 (LN-405): > 32000 nM | IC50 (MC-CAR): 5710 nM | IC50 (MCF7): 2180 nM | IC50 (MDA-MB-134-VI): > 32000 nM | IC50 (MIA PaCa-2): 18100 nM | IC50 (MKN-28): 17300 nM | IC50 (NB1): 21900 nM | IC50 (NCI-H187): > 32000 nM | IC50 (NCI-H2347): > 32000 nM | IC50 (NCI-H292): > 32000 nM | IC50 (NCI-H520): > 32000 nM | IC50 (NCI-H522): > 32000 nM | IC50 (NCI-H661): > 32000 nM | IC50 (NUGC-3): > 32000 nM | IC50 (PFSK-1): > 32000 nM | IC50 (RCM-1): > 32000 nM | IC50 (RERF-LC-MS): > 32000 nM | IC50 (RL): > 32000 nM | IC50 (RPMI-7951): > 32000 nM | IC50 (SCC-9): > 32000 nM | IC50 (SIG-M5): 2100 nM | IC50 (SNU-423): > 32000 nM | IC50 (SNU-449): > 32000 nM | IC50 (SW1417): > 32000 nM | IC50 (SW1573): > 32000 nM | IC50 (SW1783): > 32000 nM | IC50 (SW-620): > 32000 nM | IC50 (SW756): > 32000 nM | IC50 (SiHa): > 32000 nM | IC50 (8505C): 11200 nM | IC50 (A 172): > 32000 nM | IC50 (AN3-CA): 14300 nM | IC50 (C-33-A): > 32000 nM | IC50 (U-698-M): 3240 nM | IC50 (UO-31): > 32000 nM | IC50 (CAMA-1): > 32000 nM | IC50 (CAPAN-1): > 32000 nM | IC50 (CHL-1): 11900 nM

CCC/C=C/C=C/C(=O)O[C@H]1/C(=C/C(=O)OC)C[C@H]2C[C@H]([C@@H](C)O)OC(=O)C[C@H](O)C[C@@H]3C[C@H](OC(C)=O)C(C)(C)[C@](O)(C[C@@H]4C/C(=C/C(=O)OC)C[C@H](/C=C/C(C)(C)[C@]1(O)O2)O4)O3 [BRYOSTATIN 1]
IC50 (COLO-792): > 8 nM | IC50 (COR-L23): > 8 nM | IC50 (EFO-21): > 8 nM | IC50 (EHEB): > 8 nM | IC50 (HCC1937): > 8 nM | IC50 (HCT-116): > 8 nM | IC50 (HEC-1): > 8 nM | IC50 (Hs-578T): > 8 nM | IC50 (HuO-3N1): > 8 nM | IC50 (KYSE-180): > 8 nM | IC50 (LN-405): > 8 nM | IC50 (MC-CAR): > 8 nM | IC50 (MCF7): > 8 nM | IC50 (MDA-MB-134-VI): > 8 nM | IC50 (MIA PaCa-2): > 8 nM | IC50 (MKN-28): > 8 nM | IC50 (NB1): > 8 nM | IC50 (NCI-H187): > 8 nM | IC50 (NCI-H2347): > 8 nM | IC50 (NCI-H292): > 8 nM | IC50 (NCI-H520): > 8 nM | IC50 (NCI-H522): > 8 nM | IC50 (NCI-H661): > 8 nM | IC50 (NUGC-3): > 8 nM | IC50 (PFSK-1): > 8 nM | IC50 (RCM-1): > 8 nM | IC50 (RERF-LC-MS): > 8 nM | IC50 (RL): > 8 nM | IC50 (RPMI-7951): > 8 nM | IC50 (SCC-9): > 8 nM | IC50 (SIG-M5): 1.56 nM | IC50 (SNU-423): > 8 nM | IC50 (SNU-449): > 8 nM | IC50 (SW1417): > 8 nM | IC50 (SW1573): > 8 nM | IC50 (SW1783): > 8 nM | IC50 (SW-620): > 8 nM | IC50 (SW756): > 8 nM | IC50 (SiHa): > 8 nM | IC50 (8505C): > 8 nM | IC50 (A 172): > 8 nM | IC50 (AN3-CA): > 8 nM | IC50 (C-33-A): > 8 nM | IC50 (U-698-M): > 8 nM | IC50 (UO-31): > 8 nM | IC50 (CAMA-1): > 8 nM | IC50 (CAPAN-1): > 8 nM | IC50 (CHL-1): > 8 nM

COc1cccc2c1C(=O)c1c(O)c3c(c(O)c1C2=O)C[C@@](O)(C(=O)CO)C[C@@H]3O[C@H]1C[C@H](N)[C@H](O)[C@H](C)O1 [DOXORUBICIN]
IC50 (COLO-792): > 1020 nM | IC50 (COR-L23): 32 nM | IC50 (EFO-21): 362 nM | IC50 (EHEB): 113 nM | IC50 (HCC1937): 116 nM | IC50 (HEC-1): 183 nM | IC50 (Hs-578T): > 1020 nM | IC50 (HuO-3N1): > 1020 nM | IC50 (KYSE-180): 59.8 nM | IC50 (LN-405): > 1020 nM | IC50 (MC-CAR): 48.7 nM | IC50 (MCF7): 11.7 nM | IC50 (MDA-MB-134-VI): > 1020 nM | IC50 (MIA PaCa-2): 34.2 nM | IC50 (MKN-28): 31.9 nM | IC50 (NB1): 46 nM | IC50 (NCI-H187): 493 nM | IC50 (NCI-H2347): 158 nM | IC50 (NCI-H292): 43.8 nM | IC50 (NCI-H520): 267 nM | IC50 (NCI-H522): 51.9 nM | IC50 (NCI-H661): 49 nM | IC50 (NUGC-3): 45.2 nM | IC50 (PFSK-1): 678 nM | IC50 (RCM-1): > 1020 nM | IC50 (RERF-LC-MS): 425 nM | IC50 (RL): > 1020 nM | IC50 (RPMI-7951): 130 nM | IC50 (SCC-9): > 1020 nM | IC50 (SIG-M5): 25.7 nM | IC50 (SNU-423): 155 nM | IC50 (SNU-449): 548 nM | IC50 (SW1417): 363 nM | IC50 (SW1573): 82.8 nM | IC50 (SW1783): 98 nM | IC50 (SW-620): 26.6 nM | IC50 (SW756): 275 nM | IC50 (SiHa): > 1020 nM | IC50 (8505C): 19.6 nM | IC50 (A 172): 80.5 nM | IC50 (AN3-CA): 72.3 nM | IC50 (C-33-A): 32.9 nM | IC50 (U-698-M): 139 nM | IC50 (UO-31): 354 nM | IC50 (CAMA-1): 159 nM | IC50 (CAPAN-1): 51.8 nM | IC50 (CHL-1): 37.7 nM
